Experimental data: US5776685A, “Protein kinase C assay” (Joslin Diabetes Center, priority 1996, dated 1998)
Entries after “also recorded” stand apart in the source; their conditions may differ.

What was measured:
bovine PKC alpha [1] = assay: [3H]PDBu binding to yeast spheroplasts expressing PKC alpha forms; settings: 14 nM [3H]PDBu
Protocol: FIG. 3 is a graph of phorbol ester binding to cells expressing PKC alpha wild type and mutant proteins.
Phorbol ester binding. About 6×10^8 expressing cells were washed twice in 10 mM K-phosphate buffer pH 7.0, 20 mM EDTA, once in 1M sorbitol and were resuspended in 10 ml 10 mM K-phosphate buffer pH 7.0, 1.1M sorbitol, 0.5 mM CaC12. Cells were incubated with 1 U glusulase (beta-glucuronidase/arylsulfatase from Helix pomatia, Boehringer Mannheim) for about 1 hour under shaking at 30 degrees C to remove the cell wall until test cell suspensions cleared in H2 O due to cell lysis.
Both were about 13-fold elevated over background levels of control cells. Similar findings have been reported for PKC overexpression in transfected mammalian fibroblasts. […] The internal deletion of aa 172-225 led to phorbol ester binding levels reduced by 60% compared to normal PKC alpha, a potential consequence of the removal of parts of the C2 domain.

[2] = test system: Saccharomyces cerevisiae strain 334 expressing bovine PKC alpha; assay: 45Ca2+ uptake into yeast cells expressing PKC alpha forms; format: cell-based; settings: for Ca2+ uptake after PMA stimulation over the control cell background: 1 μM PMA; for increase in Ca^2+ uptake (basal): without PMA stimulation, versus control cells
Protocol: FIG. 5 is a graph of the modulation of extracellular Ca2+uptake by PKC alpha wild type and mutants.
^45 Ca^2 + uptake. Expressing yeast cells after 16 h in 2% galactose medium were washed with PBS when reaching 0.5 O.D.600. 10^7 cells were suspended in 100 μl of 50 mM MES pH 6.5, 5 mM MgSO4 and incubated with 1 μM PMA for 1 h at 30 degrees C under shaking on 96-well plates. Subsequently uptake of 2 μCi 45 Ca2+ at 300 μM CaCl2 was measured for 2 hours. Cells were rapidly transferred to Multiscreen filtration microtiter plates (Millipore) and washed four times with 200 μl of 10 mM MES, 10 mM Tris, 35 mM CaC12 pH 6.0. Filters were dried and cell-associated radioactivity was determined by liquid scintillation spectroscopy.
Ca^2+ influx has been reported in response to PKC activation in a variety of eukaryotic cells such as Nitella syncarpa plasmalemma, Aplysia bag cell neurons, rat ventricular myocytes and rat pituitary cells. To test whether the measured catalytic activities and the yeast phenotype correlate with other biological responses mediated by PKC, ^45 Ca^2+ uptake into expressing cells was determined after PMA stimulation. […] These responses are consistent with the catalytic activities and phenotypic responses of the mutants: elevated basal activity of ND153, full and reduced phorbol ester-stimulated activity of normal PKC alpha and D172-225, respectively, and lack of activity for CD26.

[3] = test system: Saccharomyces cerevisiae strain 334 expressing bovine PKC alpha; assay: Cell doubling time of yeast cultures expressing PKC alpha wild type and mutant cDNAs; format: cell-based; settings: 2% galactose; for average cell doubling time: synthetic minimal medium, CD26 and ND153 values phorbol ester-independent
Protocol: FIG. 2 is a graph of cell doubling time of yeast cultures expressing PKC alpha wild type and mutant cDNAs. Freshly saturated cultures expressing control plasmids (Cont.), normal PKC alpha (PKCa) or deletion mutants D172-225, ND153 or CD26 were diluted to low cell densities. Cell growth was followed on a roller at 30 degrees C to measurable cell densities of the logarithmic growth phase at 0.2-0.6 O.D. 600. […] Average doubling times were calculated.
Yeast strains and culture conditions. PKC expression plasmids and YEp51 or YEp52 as controls were introduced into Saccharomyces cerevisiae strain 334 [MAT alpha, pep 4-3, prb1-122, ura 3-52; leu2-3, 112, reg1-501, gal1]by lithium acetate transformation See e.g., Ito et al. 1983, J. Bacterial. 153: 163. Cells were routinely grown at 30 degrees C on a culture roller or shaker in liquid culture or on 1.5% agar plates. The synthetic medium contained 2% glucose and was leucine-free to select for stable propagation of the expression plasmids. Expressing yeast colonies were identified phenotypically by replica plating on medium containing or lacking PMA. Phenol extracts of crude cell lysates were prepared to re-transform Escherichia coli DH5 alpha. PKC mutants were characterized by DNA sequencing and defined plasmids were re-introduces into S. cerevisiae 334. These strains were used in all experiments shown. 50 ml cultures were routinely inoculated from freshly saturated cultures and grown for 16 h to an optical density of 0.4 at O.D.600.
Cell doubling times were measured by O.D.600 reading of liquid cultures in the presence of 2% galactose as shown in FIG. 2 to test whether they correlate with the specific phenotypes (colony size) caused by normal mutant PKC alpha. […] A normal 4 hours doubling time was measured for all constructs in the absence of galactose.

[4] = test system: Saccharomyces cerevisiae strain 334 expressing bovine PKC alpha; assay: Phenotypic screen of PKC alpha mutant activity by yeast colony size on agar plates; format: cell-based; settings: 2% galactose; for yeast colony size / phenotype: independent of phorbol ester; for yeast colony size: 3 days
Protocol: The phenotypic screen of PKC alpha mutant activity by yeast colony size was performed as follows. […] Plates (9 cm diameter) were photograph after 3 days.
Galactose stimulation of cDNA expression resulted for some PKC forms in specific, decreased yeast colony sizes which were either dependent on or independent of phorbol ester activation after 3 days. […] Microscopically small colonies expressing ND153 grew to visible sizes with rates independently of PMA. Colonies expressing PKC alpha grew even more slowly to visible sizes during continued incubation in the presence of PMA.

bovine PKC alpha [5] = assay: PKC catalytic activity in vitro (phosphorylation of [ser25]PKC19-31 in detergent cell extracts); format: biochemical; settings: for PMA and Ca^2+ stimulated mutant PKC activity: Ca^2+: Ca^2+ stimulation of in vitro catalytic activity; for PMA and Ca^2+ stimulated mutant PKC activity: PMA: PMA stimulation, common symbol for in vitro catalytic activity and PMA-mediated increase of cell doubling time; for PMA and Ca^2+ stimulated mutant PKC activity: -: no stimulus (basal), common symbol for in vitro catalytic activity and cell doubling time response; for stimulation of catalytic activity by phorbol ester: PMA + phosphatidylserine
Protocol: FIG. 4 is a graph which compares PKC mutant and wild type catalytic activities in vitro. […] Catalytic activity was stimulated by combinations of phosphatidylserine (PS), the phorbol ester PMA and calcium ions (Ca^2+). PS, open; PMA+PS, solid; Ca^2+ +PS, diagonally striped.
Cell lysis. About 6×10^8 expressing cells were washed in PBS and were resuspended in 1 ml lysis buffer containing 1% Triton X100, 50 mM Hepes pH 7.4, 15-mM NaC1, 5 mM EDTA, 5 mM EGTA, 10 μg/ml pepstatin, 40 μg/ml leupeptin, 10 μg/ml aprotinin and 200 μg/ml PMSF. Cell suspensions mixed with the same volume of acid washed glass beads (450-500 μm) were lysed mechanically by six 30 second vortexing steps interrupted by cooling on ice for at least 30 second in 50 ml screw cap polypropylene tubes. The lysate was cleared by 4,000 g centrifugation for 15 minutes at 4 degrees C and stored at […] for up to several weeks.
PKC catalytic activity. […] Phosphatidylserine in chloroform, with or without PMA was evaporated under N2 to dryness, resuspended in 20 mM Tris pH 7.5, mixed and sonicated at 4 degrees C for 45 seconds before use. To terminate the reaction the sample was placed on phosphocellulose paper (Whatman P81) which was repeatedly washed in 75 mM phosphoric acid. Bound radioactivity was determined by liquid scintillation spectroscopy.

rat PKC β-1 = molecular target: T1, rat PKC β-1 (Rattus norvegicus, UniProt P68403); assay: PKC beta-1 enzymatic activity in detergent cell extracts; format: biochemical; settings: phospholipid dependent
T1 construct: we inserted the complete protein coding cDNA of rat PKC β-1; made in house; host or cells: Saccharomyces cerevisiae strain 334, YEp51 with GAL10 promoter; crude detergent cell extract
Protocol: Duplicate measurements have routinely been made in our experiments. […] The methods described here are for the bovine PKC alpha experiments. The same or similar methods were used in the rat PKC beta-1 experiments.
PKC catalytic activity. PKC catalytic activity was measured as described in Hu et al., 1990, J. Biol. Chem. 265: 13864 by phosphorylation of 3 μg of the specific substrate peptide […] (Seq. ID No. 7) (Gibco, BRL) in the presence of 5 μCi [gamma-32P]ATP (3000 Ci/mmol) in 125 μl of 5-fold diluted cell extract for 30 min. at 25 degrees C with combinations of 160 μg/ml phosphatidylserine (Avanti Polar Lipids, Inc.), 1 μm PMA and 5 mM CaCl2. […] Bound radioactivity was determined by liquid scintillation spectroscopy.
To compare the enzymatic activity of normal and truncated PKC forms, phosphorylation of the PKC-specific substrate [ser^25 ]PKC19-31 a derivative of the pseudosubstrate sequence was measured in detergent cell extracts in response to combinations of phosphatidylserine, the phorbol ester PMA (phorbol-12-myristate-13-acetate), and Ca^2+. In the presence of phosphatidylserine alone only a background level of phosphorylation was detected in all samples including control cells which likely represents the activity of other endogenous yeast protein kinases.

T1 sequence (P68403 2-671): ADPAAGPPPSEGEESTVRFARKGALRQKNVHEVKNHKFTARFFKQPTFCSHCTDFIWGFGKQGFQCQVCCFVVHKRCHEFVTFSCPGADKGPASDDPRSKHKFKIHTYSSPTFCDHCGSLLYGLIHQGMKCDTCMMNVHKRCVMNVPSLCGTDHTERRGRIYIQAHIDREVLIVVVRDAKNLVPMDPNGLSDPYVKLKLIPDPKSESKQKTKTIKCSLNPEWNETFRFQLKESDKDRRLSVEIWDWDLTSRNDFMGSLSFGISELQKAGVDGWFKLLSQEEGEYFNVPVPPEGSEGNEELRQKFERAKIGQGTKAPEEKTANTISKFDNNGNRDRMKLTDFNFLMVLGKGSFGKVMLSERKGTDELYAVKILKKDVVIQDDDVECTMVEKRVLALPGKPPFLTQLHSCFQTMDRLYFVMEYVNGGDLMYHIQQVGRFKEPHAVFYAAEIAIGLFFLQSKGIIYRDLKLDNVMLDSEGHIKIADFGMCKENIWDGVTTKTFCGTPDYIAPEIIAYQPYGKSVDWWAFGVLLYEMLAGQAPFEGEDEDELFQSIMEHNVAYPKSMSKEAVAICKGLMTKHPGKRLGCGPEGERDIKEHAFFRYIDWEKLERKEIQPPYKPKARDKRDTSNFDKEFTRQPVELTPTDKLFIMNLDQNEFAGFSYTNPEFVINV

## CD26: PKCa deletion of aa 647-672
Bovine PKC alpha [1]
  [3H]PDBu binding level over background levels of control cells: about 13 fold
[2]
  Ca2+ uptake after PMA stimulation over the control cell background: unaffected by phorbol ester
  increase in Ca^2+ uptake (basal): same basal response as control cells
[3]; absence of phorbol ester
  average cell doubling time: 4 h
[4]
  yeast colony size / phenotype: wild-type phenotype under any condition
Bovine PKC alpha [5]
  PMA and Ca^2+ stimulated mutant PKC activity: Ca^2+: -
  PMA and Ca^2+ stimulated mutant PKC activity: PMA: -
  PMA and Ca^2+ stimulated mutant PKC activity: -: -
Bovine PKC alpha [5]; combinations of phosphatidylserine, PMA and calcium
  catalytic activity under any conditions: no activity was detected

## PKC alpha: bovine protein kinase C alpha, full length, expressed in yeast
Bovine PKC alpha [1]
  [3H]PDBu binding level over background levels of control cells: about 13 fold
[2]
  Ca2+ uptake after PMA stimulation over the control cell background: up to 4 fold
  increase in Ca^2+ uptake (basal): 1.4 fold
[3]; absence of phorbol ester
  increase in the cell doubling time: 50%
  average cell doubling time: 6 h
[3]; phorbol ester stimulation (1 μM PMA)
  cell doubling time: 16 h
[4]; absence of phorbol ester
  yeast colony size: reduced colony sizes
[4]; phorbol ester activation (1 uM PMA)
  yeast colony size: substantially reduced yeast colony size; also recorded: substantially further decreased to microscopically small sizes
Bovine PKC alpha [5]
  PMA and Ca^2+ stimulated mutant PKC activity: Ca^2+: ++
  stimulation of catalytic activity by phorbol ester: more than 20 fold
  PMA and Ca^2+ stimulated mutant PKC activity: PMA: ++
  PMA and Ca^2+ stimulated mutant PKC activity: -: -
  catalytic activity in the presence of phosphatidylserine alone (elevated level): no catalytic activity was detected

## ND153: PKCa deletion of aa 1-153
Bovine PKC alpha [1]
  [3H]PDBu binding level over background levels of control cells: virtually background
[2]
  Ca2+ uptake after PMA stimulation over the control cell background: unaffected by phorbol ester
  increase in Ca^2+ uptake (basal): ~3 fold
[3]; absence of phorbol ester
  average cell doubling time: 12 h
[4]
  yeast colony size / phenotype: microscopically small colonies independent of phorbol ester activation
Bovine PKC alpha [5]
  PMA and Ca^2+ stimulated mutant PKC activity: Ca^2+: ++
  stimulation of catalytic activity by phorbol ester: PMA-unresponsive
  PMA and Ca^2+ stimulated mutant PKC activity: PMA: +
  PMA and Ca^2+ stimulated mutant PKC activity: -: +
  catalytic activity in the presence of phosphatidylserine alone (elevated level): 10 fold

## diacylglycerol
Rat PKC β-1
  stimulation of PKC β-1 catalytic activity: stimulated by diacylglycerol similar to PMA
